Source: US11566057B2, “Long-acting co-agonists of the glucagon and GLP-1 receptors” (Merck Sharp & Dohme Corp., priority 2017, dated 2023)
Read-outs that look alike come from different tables or passages of the source. Numbered stars: 1 amine (or outer) side, 2 acyl side, 3 side chain; on linkers, the order of the positions; unused ones are H or OH. Square brackets hold non-standard residues; d marks the D form. Side chains are listed from the residue outwards. Peptide text beside a SMILES is read from it. * marks the point of attachment. C20 diacid = O=C(O)CCCCCCCCCCCCCCCCCCC(=O)*; C18 diacid = O=C(O)CCCCCCCCCCCCCCCCC(=O)*; αMeW = C[C@](N)(Cc1c[nH]c2ccccc12)C(=O)O; C16 diacid = O=C(O)CCCCCCCCCCCCCCC(=O)*; γGlu = O=C(O)[C@H](CCC(=O)[*:2])N[*:1]; Met(O2) = CS(=O)(=O)CC[C@H](N)C(=O)O; αMeD = C[C@](N)(CC(=O)O)C(=O)O; AEEA = NCCOCCOCC(=O)O; Aib = CC(C)(N)C(=O)O

Experiments:
human GCGR = target: T1, human GCGR (Homo sapiens, UniProt P47871); test: cAMP activity assay at the Glucagon receptor (GCGR); format: cell-based; settings: for hGCGR/hGLP1R (hTone): ratio of GCGR EC50 to GLP1R EC50
T1 construct: expressed in transfected cells; growth medium holds Blasticidin and Hygromycin
Outline: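 Peptides serially diluted from DMSO (10 points) and added to frozen-stock cells bearing human GLP1R (10,000 cells/well) or GCGR (30,000 cells/well), 1 h at RT, dark. EC50 by four-parameter logistic fit of HitHunter cAMPXS luminescence, read following overnight RT incubation.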

human GLP1R = target: T2, human GLP1R (Homo sapiens, UniProt P43220); test: cAMP activity assay at the GLP-1 receptor (GLP1R); format: cell-based
T2 construct: expressed in transfected cells; growth medium holds Blasticidin and Hygromycin
Description: Activity of the peptides at the Glucagon receptor (GCGR) and GLP-1 receptor (GLP1R) was measured in a cAMP activity assay.
GCG/GLP-1 receptor co-agonist peptides were dissolved in 100% DMSO (dimethyl sulfoxide) and serially diluted to generate 10 point titrations. The peptide solutions were then transferred into 384-well assay plates (150 nL/well). Assay ready frozen cells expressing human GLP1R or human GCGR were suspended in growth media consisting of DMEM medium (GIBCO®), 10% FBS (GIBCO®), 1×NEAA(GIBCO®), 1×P/S (GIBCO®), 10 ug/mL Blasticidin (GIBCO®) and 200 μg/mL Hygromycin (GIBCO®). […] The cell suspensions (15 μL) were then added to the assay plates containing the peptide solutions (30,000 cells/well for human GCGR; 10,000 cells/well for human GLP1R). The cells were incubated for 1 hour at room temperature in the dark. Production of cAMP was determined using HitHunter™ cAMPXS kits (DiscoverX) following manufacturer protocol. The plates were incubated for overnight at room temperature in the dark. Luminescence was measured using an EnVision Multilabel plate reader (Perkin Elmer). Native GLP-1 and Glucagon (Bachem) are used as control peptides. EC50 values were calculated using uses a 4 parameter logistic fit based on the Levenberg-Marquardt algorithm.

[1] = summary statement: EC50 at each of the glucagon and GLP-1 receptors, read-out: EC50 at the glucagon receptor
[2] = summary statement: EC50 at each of the glucagon and GLP-1 receptors, read-out: EC50 at the GLP-1 receptor
[3] = cells expressing human GLP1R, cAMP production, buffer with or without 20% human serum (not stated which), read-out: GLP1R EC50 human

T2 sequence (P43220 24-463): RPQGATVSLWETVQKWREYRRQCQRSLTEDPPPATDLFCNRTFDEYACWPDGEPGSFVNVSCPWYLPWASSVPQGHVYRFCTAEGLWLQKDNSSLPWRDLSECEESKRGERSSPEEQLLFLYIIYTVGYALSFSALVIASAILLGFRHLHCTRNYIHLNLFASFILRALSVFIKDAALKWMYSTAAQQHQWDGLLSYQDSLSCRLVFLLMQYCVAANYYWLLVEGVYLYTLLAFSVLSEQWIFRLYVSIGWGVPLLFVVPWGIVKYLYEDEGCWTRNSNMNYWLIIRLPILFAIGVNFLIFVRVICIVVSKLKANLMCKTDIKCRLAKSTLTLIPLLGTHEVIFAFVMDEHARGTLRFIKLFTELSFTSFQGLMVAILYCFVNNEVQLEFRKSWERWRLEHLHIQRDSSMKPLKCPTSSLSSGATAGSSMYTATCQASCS
T1 sequence (P47871 26-477): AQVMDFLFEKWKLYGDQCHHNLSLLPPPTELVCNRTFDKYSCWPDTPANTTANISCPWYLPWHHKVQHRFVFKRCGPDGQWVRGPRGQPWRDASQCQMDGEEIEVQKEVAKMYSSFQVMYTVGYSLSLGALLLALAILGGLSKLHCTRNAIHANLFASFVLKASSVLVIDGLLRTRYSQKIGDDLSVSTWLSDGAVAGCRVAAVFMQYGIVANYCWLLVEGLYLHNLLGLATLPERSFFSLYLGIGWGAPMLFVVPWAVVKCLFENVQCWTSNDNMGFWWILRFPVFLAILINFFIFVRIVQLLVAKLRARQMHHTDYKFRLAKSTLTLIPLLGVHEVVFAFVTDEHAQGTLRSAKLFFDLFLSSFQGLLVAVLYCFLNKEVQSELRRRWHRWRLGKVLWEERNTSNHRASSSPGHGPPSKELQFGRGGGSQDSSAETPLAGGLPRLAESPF

Row | Structure (SMILES) | hGCGR/hGLP1R (hTone) (human GCGR) | EC50 (human GCGR; [1]) | EC50 (human GLP1R; [2]) | EC50 (human GCGR; cells expressing human GCGR, cAMP production, buffer with or without 20% human serum (not stated which), read-out: GCGR EC50 human) | EC50 (human GLP1R; [3])
1 | CC(C)C[C@H](NC(=O)[C@H](Cc1ccc(O)cc1)NC(=O)[C@H](CCCCN)NC(=O)[C@H](CO)NC(=O)[C@H](Cc1ccc(O)cc1)NC(=O)[C@H](CC(=O)O)NC(=O)[C@H](CO)NC(=O)[C@@H](NC(=O)[C@H](Cc1ccccc1)NC(=O)[C@@H](NC(=O)CNC(=O)[C@H](CCC(N)=O)NC(=O)C(C)(C)NC(=O)[C@@H](N)Cc1c[nH]cn1)[C@@H](C)O)[C@@H](C)O)C(=O)N[C@@H](CC(=O)O)C(=O)N[C@@H](C)C(=O)N[C@@H](CCCNC(=N)N)C(=O)N[C@@H](C)C(=O)N[C@@H](C)C(=O)N[C@@H](CCCCNC(=O)COCCOCCNC(=O)CC[C@H](NC(=O)CCCCCCCCCCCCCCCCCCC(=O)O)C(=O)O)C(=O)N[C@@H](CC(=O)O)C(=O)N[C@@H](Cc1ccccc1)C(=O)N[C@H](C(=O)N[C@@H](CCC(N)=O)C(=O)N[C@@H](Cc1c[nH]c2ccccc12)C(=O)N[C@@H](CC(C)C)C(=O)N[C@@H](CCS(C)(=O)=O)C(=O)N[C@@](C)(CC(=O)O)C(=O)N[C@H](C(N)=O)[C@@H](C)O)C(C)C [TP629] (H-H[Aib]QGTFTSDYSKYLDARAAK([AEEA-γGlu-C20 diacid])DFVQWL[Met(O2)][αMeD]T-NH2; N-terminus assumed) | 1.4 | < 5 nM | < 5 nM | – | –
2 | CC(C)C[C@H](NC(=O)[C@H](C)NC(=O)[C@H](CC(=O)O)NC(=O)[C@H](CC(C)C)NC(=O)[C@H](Cc1ccc(O)cc1)NC(=O)[C@H](CCCCN)NC(=O)[C@H](CO)NC(=O)[C@H](Cc1ccc(O)cc1)NC(=O)[C@H](CC(=O)O)NC(=O)[C@H](CO)NC(=O)[C@@H](NC(=O)[C@H](Cc1ccccc1)NC(=O)[C@@H](NC(=O)CNC(=O)[C@H](CCC(N)=O)NC(=O)C(C)(C)NC(=O)[C@@H](N)Cc1c[nH]cn1)[C@@H](C)O)[C@@H](C)O)C(=O)N[C@@H](C)C(=O)N[C@@H](C)C(=O)N[C@@H](CCCCNC(=O)COCCOCCNC(=O)COCCOCCNC(=O)CC[C@H](NC(=O)CCCCCCCCCCCCCCCCC(=O)O)C(=O)O)C(=O)N[C@@H](CC(=O)O)C(=O)N[C@@H](Cc1ccccc1)C(=O)N[C@H](C(=O)N[C@@H](CCC(N)=O)C(=O)N[C@@H](Cc1c[nH]c2ccccc12)C(=O)N[C@@H](CC(C)C)C(=O)N[C@@H](CCS(C)(=O)=O)C(=O)N[C@@H](CC(=O)O)C(=O)N[C@H](C(N)=O)[C@@H](C)O)C(C)C [TP599] (H-H[Aib]QGTFTSDYSKYLDALAAK([AEEA-AEEA-γGlu-C18 diacid])DFVQWL[Met(O2)]DT-NH2; N-terminus assumed) | 1.6 | < 5 nM | < 5 nM | – | –
3 | CC(C)C[C@H](NC(=O)[C@H](Cc1ccc(O)cc1)NC(=O)[C@H](CCCCN)NC(=O)[C@H](CO)NC(=O)[C@H](Cc1ccc(O)cc1)NC(=O)[C@H](CC(=O)O)NC(=O)[C@H](CO)NC(=O)[C@@H](NC(=O)[C@H](Cc1ccccc1)NC(=O)[C@@H](NC(=O)CNC(=O)[C@H](CCC(N)=O)NC(=O)C(C)(C)NC(=O)[C@@H](N)Cc1c[nH]cn1)[C@@H](C)O)[C@@H](C)O)C(=O)N[C@@H](CC(=O)O)C(=O)N[C@@H](C)C(=O)N[C@@H](CCCNC(=N)N)C(=O)N[C@@H](C)C(=O)N[C@@H](C)C(=O)N[C@@H](CCCCNC(=O)COCCOCCNC(=O)COCCOCCNC(=O)CC[C@H](NC(=O)CCCCCCCCCCCCCCCCC(=O)O)C(=O)O)C(=O)N[C@@H](CC(=O)O)C(=O)N[C@@H](Cc1ccccc1)C(=O)N[C@H](C(=O)N[C@@H](CCC(N)=O)C(=O)N[C@@](C)(Cc1c[nH]c2ccccc12)C(=O)N[C@@H](CC(C)C)C(=O)N[C@@H](CCS(C)(=O)=O)C(=O)N[C@@H](CC(=O)O)C(=O)N[C@H](C(N)=O)[C@@H](C)O)C(C)C [TP631] (H-H[Aib]QGTFTSDYSKYLDARAAK([AEEA-AEEA-γGlu-C18 diacid])DFVQ[αMeW]L[Met(O2)]DT-NH2; N-terminus assumed) | 1.3 | < 5 nM | < 5 nM | – | –

The remaining lines, values ahead:

Row | hGCGR/hGLP1R (hTone) (human GCGR) | EC50 (human GCGR; [1]) | EC50 (human GLP1R; [2]) | EC50 (human GCGR; cells expressing human GCGR, cAMP production, buffer with or without 20% human serum (not stated which), read-out: GCGR EC50 human) | EC50 (human GLP1R; [3]) | Structure (SMILES)
4 | – | – | – | > 19.8 nM | > 19.8 nM | CC(C)C[C@H](NC(=O)[C@H](CCCCN)NC(=O)[C@H](CCCCN)NC(=O)[C@H](CO)NC(=O)[C@H](Cc1ccc(O)cc1)NC(=O)[C@H](CCC(=O)O)NC(=O)[C@H](CO)NC(=O)[C@@H](NC(=O)[C@H](Cc1ccccc1)NC(=O)[C@@H](NC(=O)CNC(=O)[C@H](CCC(N)=O)NC(=O)C(C)(C)NC(=O)[C@@H](N)Cc1c[nH]cn1)[C@@H](C)O)[C@@H](C)O)C(=O)N[C@@H](CC(=O)O)C(=O)N[C@@H](C)C(=O)N[C@@H](CCCNC(=N)N)C(=O)N[C@@H](C)C(=O)N[C@@H](C)C(=O)N[C@@H](CCCCNC(=O)COCCOCCNC(=O)COCCOCCNC(=O)CC[C@H](NC(=O)CCCCCCCCCCCCCCCCC(=O)O)C(=O)O)C(=O)N[C@@H](CC(=O)O)C(=O)N[C@@H](Cc1ccccc1)C(=O)N[C@H](C(=O)N[C@@H](CCC(N)=O)C(=O)N[C@@H](Cc1c[nH]c2ccccc12)C(=O)N[C@@H](CC(C)C)C(=O)N[C@@H](CCS(C)(=O)=O)C(=O)N[C@@H](CC(=O)O)C(=O)N[C@H](C(N)=O)[C@@H](C)O)C(C)C [TP703] (H-H[Aib]QGTFTSEYSKKLDARAAK([AEEA-AEEA-γGlu-C18 diacid])DFVQWL[Met(O2)]DT-NH2)
5 | 3.0 | < 5 nM | < 5 nM | – | 0.19 nM | CC(C)C[C@H](NC(=O)[C@H](Cc1ccc(O)cc1)NC(=O)[C@H](CCCCN)NC(=O)[C@H](CO)NC(=O)[C@H](Cc1ccc(O)cc1)NC(=O)[C@H](CC(=O)O)NC(=O)[C@H](CO)NC(=O)[C@@H](NC(=O)[C@H](Cc1ccccc1)NC(=O)[C@@H](NC(=O)CNC(=O)[C@H](CCC(N)=O)NC(=O)C(C)(C)NC(=O)[C@@H](N)Cc1c[nH]cn1)[C@@H](C)O)[C@@H](C)O)C(=O)N[C@@H](CC(=O)O)C(=O)N[C@@H](C)C(=O)N[C@@H](CCCNC(=N)N)C(=O)N[C@@H](C)C(=O)N[C@@H](C)C(=O)N[C@@H](CCC(N)=O)C(=O)N[C@@H](CC(=O)O)C(=O)N[C@@H](Cc1ccccc1)C(=O)N[C@H](C(=O)N[C@@H](CCCCNC(=O)COCCOCCNC(=O)COCCOCCNC(=O)COCCOCCNC(=O)CC[C@H](NC(=O)CCCCCCCCCCCCCCCCC(=O)O)C(=O)O)C(=O)N[C@@H](Cc1c[nH]c2ccccc12)C(=O)N[C@@H](CC(C)C)C(=O)N[C@@H](CCS(C)(=O)=O)C(=O)N[C@@H](CC(=O)O)C(=O)N[C@H](C(N)=O)[C@@H](C)O)C(C)C [TP680] (H-H[Aib]QGTFTSDYSKYLDARAAQDFVK([AEEA-AEEA-AEEA-γGlu-C18 diacid])WL[Met(O2)]DT-NH2; N-terminus assumed)
6 | 0.7 | < 5 nM | < 5 nM | – | – | CC(C)C[C@H](NC(=O)[C@H](Cc1c[nH]c2ccccc12)NC(=O)[C@H](CCCCNC(=O)COCCOCCNC(=O)COCCOCCNC(=O)CC[C@H](NC(=O)CCCCCCCCCCCCCCC(=O)O)C(=O)O)NC(=O)[C@@H](NC(=O)[C@H](Cc1ccccc1)NC(=O)[C@H](CC(=O)O)NC(=O)[C@H](CCC(N)=O)NC(=O)[C@H](C)NC(=O)[C@H](C)NC(=O)[C@H](CCCNC(=N)N)NC(=O)C(C)(C)NC(=O)[C@H](CC(=O)O)NC(=O)[C@H](CC(C)C)NC(=O)[C@H](Cc1ccc(O)cc1)NC(=O)[C@H](CCCCN)NC(=O)[C@H](CO)NC(=O)[C@H](Cc1ccc(O)cc1)NC(=O)[C@H](CC(=O)O)NC(=O)[C@H](CO)NC(=O)[C@@H](NC(=O)[C@H](Cc1ccccc1)NC(=O)[C@@H](NC(=O)CNC(=O)[C@H](CCC(N)=O)NC(=O)C(C)(C)NC(=O)[C@@H](N)Cc1c[nH]cn1)[C@@H](C)O)[C@@H](C)O)C(C)C)C(=O)N[C@@H](CCS(C)(=O)=O)C(=O)N[C@@H](CCC(=O)O)C(=O)N[C@H](C(N)=O)[C@@H](C)O [TP815] (H-H[Aib]QGTFTSDYSKYLD[Aib]RAAQDFVK([AEEA-AEEA-γGlu-C16 diacid])WL[Met(O2)]ET-NH2)
7 | 2.2 | < 5 nM | < 5 nM | – | 0.71 nM | CC(C)C[C@H](NC(=O)[C@H](Cc1ccc(O)cc1)NC(=O)[C@H](CCCCN)NC(=O)[C@H](CO)NC(=O)[C@H](Cc1ccc(O)cc1)NC(=O)[C@H](CC(=O)O)NC(=O)[C@H](CO)NC(=O)[C@@H](NC(=O)[C@H](Cc1ccccc1)NC(=O)[C@@H](NC(=O)CNC(=O)[C@H](CCC(N)=O)NC(=O)C(C)(C)NC(=O)[C@@H](N)Cc1c[nH]cn1)[C@@H](C)O)[C@@H](C)O)C(=O)N[C@@H](CC(=O)O)C(=O)N[C@@H](C)C(=O)N[C@@H](CCCNC(=N)N)C(=O)N[C@@H](C)C(=O)N[C@@H](C)C(=O)N[C@@H](CCCCNC(=O)COCCOCCNC(=O)COCCOCCNC(=O)CC[C@H](NC(=O)CCCCCCCCCCCCCCCCC(=O)O)C(=O)O)C(=O)N[C@@H](CCC(=O)O)C(=O)N[C@@H](Cc1ccccc1)C(=O)N[C@H](C(=O)N[C@@H](CCC(N)=O)C(=O)N[C@@H](Cc1c[nH]c2ccccc12)C(=O)N[C@@H](CC(C)C)C(=O)N[C@@H](CCS(C)(=O)=O)C(=O)N[C@@](C)(CC(=O)O)C(=O)N[C@H](C(N)=O)[C@@H](C)O)C(C)C [TP713] (H-H[Aib]QGTFTSDYSKYLDARAAK([AEEA-AEEA-γGlu-C18 diacid])EFVQWL[Met(O2)][αMeD]T-NH2; N-terminus assumed)
